This passage reports IC50 results from BindingDB's records for doi:10.1021/jm00039a019 (Zeria Pharmaceutical, 1994).

This assay deals with Prolyl endopeptidase (Canis familiaris). Briefly: In vitro inhibitory activity against purified prolyl endopeptidase (PEP) from canine brain.

In the case of `CC(C)c1ccc(C(=O)c2cccs2)c(SCCCCCCCCN(C)C)n1` [[2-(8-Dimethylamino-octylsulfanyl)-6-isopropyl-pyridin-3-yl]-thiophen-2-yl-methanone], the IC50 was determined as 3500 nM.
To `O=C[C@@H]1CSCN1C(=O)[C@@H]1CSCN1C(=O)C[C@H]1CCc2ccccc2C1` [(R)-3-[(R)-3-((S)-2-1,2,3,4-Tetrahydro-naphthalen-2-yl-acetyl)-thiazolidine-4-carbonyl]-thiazolidine-4-carbaldehyde] belongs 0.85 nM.

A word on the IC50: it is the point on the concentration scale where inhibition reaches its midpoint. A higher IC50 goes with lower potency.
